Consider 5 compounds from patent US5605929A, “Methods and compositions for inhibiting 5α-reductase activity” (priority 1995, dated 1997).

“Also recorded” adds a separate entry of the source.

Assay [1] relates to 5α-reductase. Kind of assay: 5α-reductase inhibition stated in words. The class given is biochemical.
In assay [2] the test system is prostate. The conditions noted are these: dog, in vivo; cited from earlier work.
Assay [3] concerns scalp baldness. To be noted: cited from earlier work; for baldness: topical to scalp.
In assay [4] the test system is rat pituitary cultures. To be noted: cited from earlier work.
The subject of assay [5] is 5α-reductase / prostate. The conditions noted are these: cited from earlier work.
The target of assay [6] is T1, 5α-Reductase of Rat Liver Microsomes (Rattus norvegicus, UniProt P24008).
T1 sequence (P24008 1-259): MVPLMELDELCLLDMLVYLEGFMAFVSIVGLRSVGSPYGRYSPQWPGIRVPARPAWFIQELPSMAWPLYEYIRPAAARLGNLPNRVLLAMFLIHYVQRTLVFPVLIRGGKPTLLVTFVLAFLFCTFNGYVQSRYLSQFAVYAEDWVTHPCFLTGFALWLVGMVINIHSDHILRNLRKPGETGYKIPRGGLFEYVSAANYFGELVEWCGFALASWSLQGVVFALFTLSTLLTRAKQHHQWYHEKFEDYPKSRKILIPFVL
Kind of assay: biochemical.
Protocol: Briefly, the binding assay solution, in a final volume of 0.15 ml, contained microsomes (2-20 μg of protein), 0.08 μCi of [^3 H]4-MA, 0.1 mM-NADPH, 1 mM-dithiothreitol and 50 mM-potassium phosphate, pH 7.0, with or without the indicated amount of a lipid or an inhibitor preparation. Lipids were dissolved in ethanol and added in 1-5 μl volumes. Control tubes received the same amount of ethanol. After incubation at 0° C. for 1 h, the [^3 H]4-MA bound to microsomes was determined by collecting microsomes on a Whatman GF/1F glass fibre filter and washing with 10 ml of 20 mM-potassium phosphate, pH 7.0, containing 0.01% CHAPS to remove unbound [^3 H]4-MA.
Microsomes were prepared at 4° C. from a buffered 0.32M-sucrose homogenate of human liver and from the livers of adult Sprague-Dawley female rats by differential centrifugation as described previously (Liang et al., 1990), and were used in the assay of 5α-reductase activity. In some experiments, microsomes were solubilized with 0.1% polyoxyethylene ether W-1 as described previously (Liang et al., 1990), except for the substitution of polyoxyethylene ether W-1 for Lubrol-WX.

Assay [7] has as its target T2, human 5α-reductase isozyme type 1 (Homo sapiens, UniProt P18405).
T2 construct: expressed in transfected cells; host or cells: Rat-1A cells infected with pMV7 retrovirus; microsomes of these cells
T2 sequence (P18405 1-259): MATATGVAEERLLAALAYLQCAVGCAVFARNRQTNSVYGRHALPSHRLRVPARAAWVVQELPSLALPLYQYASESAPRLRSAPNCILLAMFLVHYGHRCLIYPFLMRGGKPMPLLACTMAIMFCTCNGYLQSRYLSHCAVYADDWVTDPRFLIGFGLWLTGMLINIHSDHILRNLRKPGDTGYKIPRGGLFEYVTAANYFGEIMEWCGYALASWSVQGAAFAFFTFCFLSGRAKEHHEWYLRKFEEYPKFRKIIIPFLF
As to the kind of experiment: [3H]4-MA binding, human type 1 isozyme expressed in Rat-1A cells. To be noted: read-out: % Inhibition of [^3 H]4-MA binding. The text has this:
(§1) The cDNAs for the human type 1 and 2 5α-reductases were isolated from human prostate λZAP II™ cDNA libraries using the published sequence of the 5α-reductases, PCR™ and standard library screening techniques (Sambrook et al., 1989). The type 1 and 2 cDNAs correspond to nucleotides 31-870 and 28-829, respectively, of the published sequences for these 5α-reductases (Anderson and Russell, 1990; Anderson et al., 1991). The type 1 and 2 cDNAs were subcloned into the retroviral expression vector pMV7 (Kirschmeier et al., 1988) and high titer stocks of virus containing the type 1 and 2 cDNAs were generated using the packaging cells BOSC 23 293 (Kirschmeier et al., 1988). Rat.-1A cells (Pear et al., 1993) were infected with virus (Topp, 1981) and cells containing integrated retrovirus were selected for G418-SO4 resistance, (Brown and Scott, 1987).
(§2) Microsomes were prepared as described previously (Liang and Liao, 1992) from the liver of adult Sprague-Dawley female rats or Rat-1A cells expressing a specific type of human 5α-reductase. […] The data presented was based on the rate of reaction.
(§3) [^3 H]4-MA binding assay were described in detail previously (Liang and Liao, 1992; Liang et al., 1983). […] The reaction was started by the addition of 25 μl of microsomes (25 μg protein). After 30-60 min incubation at 0° C., the [^3 H]4-MA bound to microsomes was collected on a Whatman GF/F glass fiber, washed and radioactivity determined (Liang and Liao, 1992).

Assay [8] can be described thus: NADPH oxidation in presence of microsomes.
The target of assay [9] is T3, human 5α-reductase isozyme type 2 (Homo sapiens, UniProt P31213).
T3 construct: expressed in transfected cells; host or cells: Rat-1A cells infected with pMV7 retrovirus; microsomes of these cells
T3 sequence (P31213 1-254): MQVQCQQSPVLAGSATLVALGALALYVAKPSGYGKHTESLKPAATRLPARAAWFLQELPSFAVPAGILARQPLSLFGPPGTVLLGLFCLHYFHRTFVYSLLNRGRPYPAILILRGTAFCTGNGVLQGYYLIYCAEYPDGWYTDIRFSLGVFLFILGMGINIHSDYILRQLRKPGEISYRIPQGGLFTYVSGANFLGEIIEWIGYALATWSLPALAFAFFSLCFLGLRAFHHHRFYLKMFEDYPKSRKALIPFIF
Kind of assay: 4-[14C]testosterone reduction, human type 2 isozyme. Type of assay: biochemical.
From the text: as §1, §2
(§4) The reaction was started by the addition of 25 μl of microsomes (25 μg protein). The mixture was incubated at 37° for 30-60 min and stopped by addition of 0.5 ml of ethyl acetate and mixing for 1 min. The organic solvent extract was removed under vacuum.

Assay [10] deals with Soybean lipoxygenase (Glycine max, UniProt P08170). The conditions noted are these: cited from earlier work.
Soybean lipoxygenase, sequence (P08170 whole entry): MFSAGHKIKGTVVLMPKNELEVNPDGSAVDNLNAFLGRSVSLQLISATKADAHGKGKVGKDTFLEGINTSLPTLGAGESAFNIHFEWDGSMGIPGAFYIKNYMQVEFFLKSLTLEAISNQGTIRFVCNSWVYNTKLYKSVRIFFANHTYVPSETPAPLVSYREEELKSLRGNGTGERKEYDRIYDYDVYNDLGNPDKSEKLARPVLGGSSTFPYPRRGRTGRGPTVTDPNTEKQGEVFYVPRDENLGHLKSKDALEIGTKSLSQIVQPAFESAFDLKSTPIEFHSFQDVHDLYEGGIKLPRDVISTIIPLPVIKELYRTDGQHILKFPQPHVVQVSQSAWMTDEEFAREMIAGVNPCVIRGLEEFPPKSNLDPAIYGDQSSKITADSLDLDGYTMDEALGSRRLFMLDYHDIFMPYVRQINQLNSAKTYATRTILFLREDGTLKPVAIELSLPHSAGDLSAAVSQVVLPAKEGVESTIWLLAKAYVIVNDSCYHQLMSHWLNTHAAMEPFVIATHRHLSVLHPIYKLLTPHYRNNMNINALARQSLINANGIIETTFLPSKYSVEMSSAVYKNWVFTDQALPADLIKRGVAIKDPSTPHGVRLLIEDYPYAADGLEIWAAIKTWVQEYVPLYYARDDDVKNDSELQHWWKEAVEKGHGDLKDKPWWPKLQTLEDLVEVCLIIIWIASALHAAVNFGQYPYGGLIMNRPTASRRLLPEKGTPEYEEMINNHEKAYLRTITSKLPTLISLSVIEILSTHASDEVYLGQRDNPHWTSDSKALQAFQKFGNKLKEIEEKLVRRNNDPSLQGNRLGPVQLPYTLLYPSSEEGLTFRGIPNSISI
In assay [11] the target is T2, human 5α-reductase isozyme type 1. As to the kind of experiment: 4-[14C]testosterone reduction, human type 1 isozyme. Type of assay: biochemical.
From the text: as §1, §2, §4

Assay [12] concerns the target T1, 5α-Reductase of Rat Liver Microsomes. Kind of assay: [3H]4-MA binding assay, rat liver microsomes (tea catechins). The gist of the method: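 Microsomes from adult female Sprague-Dawley rat liver or Rat-1A cells expressing human 5α-reductase, 25 μg protein per reaction. Incubation 30–60 min at 0 °C; microsome-bound [3H]4-MA collected on glass-fibre filters and counted. Duplicate or triplicate determinations, values based on reaction rate.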
Background: Liver microsomes are a subcellular fraction often used to study metabolism.

The subject of assay [13] is androgen-dependent organs. The class given is in vivo, rat. On the procedure:
The control rats were injected with 0.3 ml of 30% ethanol.

Assay [14] concerns prostate and preputial organ. As to the kind of experiment: Catechins ip 7 days, large rats. To be noted: 15 mg ip/day, 7 days. The class given is in vivo, rat. On the procedure:
Male Sprague Dawley rats, 172±20 g body weight, were used. Each group had 5 rats. […] The control rats received 0.3 ml of 30% ethanol.

Assay [15] has as its system type 1 5α-reductase. Type of assay: biochemical. On the procedure:
as §3, §4

In assay [16] the target is T3, human 5α-reductase isozyme type 2. As to the kind of experiment: [3H]4-MA binding, human type 2 isozyme expressed in Rat-1A cells.
From the text: as §1, §2, §3

The subject of assay [17] is human type 1 and 2 5α-reductase isozymes. The conditions noted are these: human; cited from earlier work.
Assay [18] deals with human type 1 and 2 5α-reductase isozymes (Homo sapiens, UniProt P18405). To be noted: cited from earlier work.
In assay [19] the test system is plasma 5α-DHT and prostate. To be noted: BPH patients; cited from earlier work.
The target of assay [20] is type 1 5α-reductase (Homo sapiens, UniProt P18405). To be noted: cited from earlier work.
Where [21] appears, read: read-out: % Inhibition of 5α-reduction.
Setting [22] is: read-out: % Inhibition of [^3 H]4-MA binding.

One may read the Ki as a measure of affinity in units of concentration, obtained from inhibition or displacement. As a reminder, the inhibition is the percentage by which the read-out fell short of the control. By IC50 is commonly meant the concentration at which inhibition is half-maximal.

In the case of `O=C(OCc1cc(O)c(O)c(O)c1)c1cc(O)c(O)c(O)c1`, the “5α-reductase inhibition” value in assay [1] is recorded as “potent inhibitor of 5α-reductase”.

In the case of `CCN(CC)C(=O)[C@H]1CC[C@H]2[C@@H]3CC[C@H]4N(C)C(=O)CC[C@]4(C)[C@H]3CC[C@]12C` [4-MA, 17β-N,N-diethylcarbamoyl-4-methyl-4-aza-5α-androstan-3-one], the “prostate size” value in assay [2] is recorded as “the prostate size decreases”. Moreover, in [3], the “baldness” value was “prevented the baldness; also recorded: effective in preventing male pattern baldness”. The “testosterone inhibition of LH release” value in assay [4] is on record as “did not affect testosterone inhibition of LH release”. Moreover, in assay [5] (castrated rats + testosterone), the “effect on prostate growth” value is “attenuated the growth of the prostate”. Besides, in [5] (intact or castrated male rats given testosterone propionate), the “effect on prostatic 5α-DHT” value is “decreasing the prostatic concentration of 5α-DHT”. The Ki in assay [6] came out at 0.013 µM.

Consider `O=C(O[C@@H]1Cc2c(O)cc(O)cc2O[C@@H]1c1ccc(O)c(O)c1)c1cc(O)c(O)c(O)c1` [ECG, (-)Epicatechin-3-gallate], for which, in assay [7], the inhibition at 1 µM was 34%, the inhibition at 3 µM was 47%, the inhibition at 10 µM came to 79% and the inhibition at 30 µM turned out to be 87%. The inhibition at 100 µM in assay [7] is 79%. Further, in [8], the NADPH oxidation entry is “did not induce NADPH oxidation”. Further, the “activity on type 2 isozyme” value in assay [9] (enzymatic assay, concentrations below 30 μM for ECG/EGCG) is given as “did not inhibit the Type 2 isozyme”. Further, in [9] (setting [21]), the inhibition at 1 µM is below 10%, the inhibition at 3 µM was below 10%, the inhibition at 10 µM is below 10% and the inhibition at 30 µM is below 10%. Besides, in [9] (setting [21]), the inhibition at 100 µM came to 82%. Besides, the IC50 in assay [10] was 18 µM. The IC50 in assay [11] (enzymatic assay) was around 10 µM. Besides, in [11] (setting [21]), the inhibition at 1 µM was 20%, the inhibition at 3 µM was determined as 27%, the inhibition at 10 µM was 47% and the inhibition at 30 µM is 90%. Moreover, the inhibition at 100 µM in [11] (setting [21]) worked out at 99%. Also, in assay [12] (setting [22]), the inhibition at 5 µM was 25%, the inhibition at 10 µM turned out to be 44%, the inhibition at 20 µM was found to be 74% and the inhibition at 40 µM came out at 88%. In addition, in [12] (setting [22]), the inhibition at 200 µM is 92%. Further, the IC50 in assay [12] (type 1 5α-reductase of rat liver microsomes, read-out: IC50) stood at 12 µM. Further, in assay [13] (10 and 15 mg per day), the “effect on all organs examined” value is “less than 20%”. The “effect on the body weight” value in assay [13] (up to 15 mg per day) was “No significant effect”. The “effect on the body weights” value in assay [14] is reported as “less than 10%”. Besides, the “competition with testosterone or NADPH” value in assay [15] is recorded as “did not appear to compete with testosterone or NADPH”. Also, in [16] (setting [22]), the inhibition at 1 µM is 17%, the inhibition at 3 µM is 17%, the inhibition at 10 µM was 45% and the inhibition at 30 µM came out at 76%. Besides, in assay [16] (setting [22]), the inhibition at 100 µM worked out at 80%.

As to `CC(C)(C)NC(=O)[C@H]1CC[C@H]2[C@@H]3CC[C@H]4NC(=O)C=C[C@]4(C)[C@H]3CC[C@]12C` [Finasteride, 17β-N-t-butylcarbamoyl-4-aza-5α-androst-1-en-3-one, reference compound], in assay [7], the inhibition at 0.001 µM was below 10%, the inhibition at 0.003 µM is below 10%, the inhibition at 0.01 µM is below 10% and the inhibition at 0.03 µM is below 10%. The inhibition at 0.1 µM in assay [7] was below 10%. In addition, in assay [17], the “sensitivity of type 2 vs type 1 isozyme to inhibition (times)” value is recorded as 30 times. Besides, in assay [18], the “sensitivity of type 1 isozyme” value is “rather insensitive”. In [3] (0.5 mg/day oral, alone or with topical 2% Minoxidil), the “serum 5α-DHT and hair” value is on record as “reduced serum 5α-DHT level”. Besides, the “baldness” value in assay [3] is “effective in preventing male pattern baldness”. Further, the “plasma 5α-DHT and prostate size” value in assay [19] is “decreases the plasma level of 5α-DHT and the size of the prostate”. The “inhibition of type 2 isozyme expressed in Rat-1A cells” value in assay [16] is “inhibited the type 2 isozyme”. In addition, in assay [16] (setting [22]), the inhibition at 0.001 µM is below 10%, the inhibition at 0.003 µM was below 10%, the inhibition at 0.01 µM came to 22% and the inhibition at 0.03 µM came to 44%. Besides, the inhibition at 0.1 µM in [16] (setting [22]) came out at 67%.

For the compound `CN1C(=O)CC[C@@H]2c3ccc(Cl)cc3CC[C@H]21` [LY191704], the “type 1 5α-reductase selectivity” value in [20] is “selective inhibitor of the type 1 5α-reductase”.
